# Test results as given in patent US7790753B2, “Derivatives of N-[phenyl(alkylpiperidine-2-yl)methyl]benzamide, preparation method thereof and application of same in therapeutics” (sanofi-aventis, priority 2003, dated 2010).
# pIC50: −log10 of the molar value. Structures can show the parent of a compound that is named as a salt.
# Legend:
# transporter glyt2 = target: T1, transporter glyt2 (Mus musculus, UniProt Q761V0); assay: Glycine transportation ([14C]glycine uptake) in mouse spinal cord homogenate; assay type: biochemical; details: 10 μM [14C]glycine, 10 minutes at 25° C., read-out: IC50, concentration capable of reducing by 50% the specific uptake of glycine
# T1 construct: from tissue; host or cells: spinal cord of male OF1 Iffa Credo mice
# T1 sequence (Q761V0 1-799): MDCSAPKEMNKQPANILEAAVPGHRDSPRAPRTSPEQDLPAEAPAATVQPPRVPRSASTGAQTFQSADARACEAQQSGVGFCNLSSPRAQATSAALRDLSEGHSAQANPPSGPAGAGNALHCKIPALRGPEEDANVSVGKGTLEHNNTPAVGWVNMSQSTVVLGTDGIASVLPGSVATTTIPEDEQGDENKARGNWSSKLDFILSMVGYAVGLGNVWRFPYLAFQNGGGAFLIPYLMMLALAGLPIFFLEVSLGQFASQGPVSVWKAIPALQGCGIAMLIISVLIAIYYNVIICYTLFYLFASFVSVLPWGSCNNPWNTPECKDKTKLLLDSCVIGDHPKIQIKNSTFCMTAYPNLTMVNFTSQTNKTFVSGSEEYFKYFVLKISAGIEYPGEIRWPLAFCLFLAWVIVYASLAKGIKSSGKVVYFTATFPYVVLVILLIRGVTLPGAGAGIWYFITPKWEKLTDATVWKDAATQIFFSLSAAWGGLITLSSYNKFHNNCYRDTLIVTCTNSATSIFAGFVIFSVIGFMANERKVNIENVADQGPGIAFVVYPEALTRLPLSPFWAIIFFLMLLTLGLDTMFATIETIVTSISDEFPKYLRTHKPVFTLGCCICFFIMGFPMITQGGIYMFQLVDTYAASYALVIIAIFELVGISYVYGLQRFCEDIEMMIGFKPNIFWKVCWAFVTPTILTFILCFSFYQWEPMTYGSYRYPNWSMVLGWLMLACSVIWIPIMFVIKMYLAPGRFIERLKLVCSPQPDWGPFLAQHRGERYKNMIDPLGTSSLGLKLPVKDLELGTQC
# From the text: Study of the Glycine Transportation in Mouse Spinal Cord Homogenate
# The uptake of [^14C]glycine by the transporter glyt2 is studied in mouse spinal cord homogenate by measuring the radioactivity incorporated in the presence or absence of test compound.
# After euthanizing the animals (male OF1 Iffa Credo mice weighing 20 to 25 g on the day of the experiment), the spinal cord of each animal is rapidly removed, weighed and stored on ice. The samples are homogenized in pH 7.4 Krebs-HEPES buffer ([4-(2-hydroxyethyl)-1-piperazineethanesulfonic acid), in a proportion of 25 ml/g of tissue.
# 50 μl of homogenate are preincubated for 10 minutes at 25° C. in the presence of pH 7.4 Krebs-HEPES buffer and of test compound at various concentrations, or of 10 mM of glycine to determine the nonspecific uptake. [^14C]glycine (specific activity=112 mCi/mmol) is then added over 10 minutes at 25° C. to a final concentration of 10 μM. The reaction is quenched by vacuum filtration and the radioactivity is estimated by solid scintillation by counting on a Microbeta Tri-Lux™ counter. The efficacy of the compound is determined by means of the IC50, the concentration capable of reducing by 50% the specific uptake of glycine, defined by the difference in radioactivity incorporated by the control batch and the batch that received 10 mM of glycine.
# [1] = target: T2, native human transporter glyt1 (Homo sapiens, UniProt P48067); assay: Glycine transportation ([14C]glycine uptake) in SK-N-MC cells expressing the native human transporter glyt1; assay type: cell-based; details: 10 μM [14C]glycine, 10 minutes at 37° C., read-out: IC50, concentration of compound that reduces by 50% the specific uptake of glycine
# T2 construct: SK-N-MC cells (human neuroepithelial cells) expressing the native human transporter glyt1; endogenous in cells; host or cells: SK-N-MC cells (human neuroepithelial cells)
# T2 sequence (P48067 1-706): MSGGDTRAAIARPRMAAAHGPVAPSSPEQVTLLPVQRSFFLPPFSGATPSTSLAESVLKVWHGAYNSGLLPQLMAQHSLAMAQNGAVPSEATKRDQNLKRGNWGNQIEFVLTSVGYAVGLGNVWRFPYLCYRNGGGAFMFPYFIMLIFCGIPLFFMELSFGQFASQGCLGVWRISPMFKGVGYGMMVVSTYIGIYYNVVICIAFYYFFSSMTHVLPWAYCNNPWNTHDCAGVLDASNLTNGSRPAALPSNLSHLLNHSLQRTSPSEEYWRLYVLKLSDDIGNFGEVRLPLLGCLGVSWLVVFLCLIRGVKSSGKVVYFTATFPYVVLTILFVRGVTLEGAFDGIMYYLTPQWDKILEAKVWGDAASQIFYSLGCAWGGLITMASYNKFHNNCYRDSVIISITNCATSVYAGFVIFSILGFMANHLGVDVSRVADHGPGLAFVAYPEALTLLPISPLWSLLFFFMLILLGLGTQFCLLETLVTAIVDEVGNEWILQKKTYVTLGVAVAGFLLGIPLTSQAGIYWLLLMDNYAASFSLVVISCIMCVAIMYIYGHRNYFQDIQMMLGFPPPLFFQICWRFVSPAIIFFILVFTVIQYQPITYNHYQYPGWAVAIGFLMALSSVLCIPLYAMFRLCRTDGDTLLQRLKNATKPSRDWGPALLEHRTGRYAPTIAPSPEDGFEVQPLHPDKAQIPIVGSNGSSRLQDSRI
# Protocol: Study of Glycine Transportation in SK-N-MC Cells Expressing the Native Human Transporter glyt1
# The uptake of [^14C]glycine is studied in SK-N-MC cells (human neuroepithelial cells) expressing the native human transporter glyt1 by measuring the radioactivity incorporated in the presence or absence of the test compound. The cells are cultured as a monolayer for 48 hours in plates pretreated with 0.02% fibronectin. On the day of the experiment, the culture medium is removed and the cells are washed with Krebs-HEPES buffer ([4-(2-hydroxyethyl)-1-piperazineethanesulfonic acid) at pH 7.4. After preincubation for 10 minutes at 37° C. in the presence either of buffer (control batch) or of test compound at various concentrations or of 10 mM glycine (determination of the nonspecific uptake), 10 μM of [^14C]glycine (specific activity 112 mCi/mmol) are then added.
# Incubation is continued for 10 minutes at 37° C., and the reaction is quenched by washing twice with pH 7.4 Krebs-HEPES buffer. The radioactivity incorporated by the cells is then estimated after adding 100 μl of liquid scintillant and stirring for 1 hour. Counting is performed on a Microbeta Tri-Lux™ counter. The efficacy of the compound is determined by means of the IC50, which is the concentration of compound that reduces by 50% the specific uptake of glycine, defined by the difference in radioactivity incorporated by the control batch and the batch that received 10 mM of glycine.
pIC50 (transporter glyt2),pIC50 [1],Structure (SMILES)
6.92,6.29,"CC1CCCC(C(NC(=O)c2cccc(C(F)(F)F)c2Cl)c2ccccc2)N1C (stereo not drawn) [Compound 1, Cis-threo-2-chloro-N-[(1,6-dimethyl-2-piperidyl)(phenyl)methyl]-3-(trifluoromethyl)benzamide hydrochloride 1:1]"
,7.00,"CC1CCC(C(NC(=O)c2cccc(C(F)(F)F)c2Cl)c2ccc(F)cc2)N(C)C1 (stereo not drawn) [Compound 5, Trans-threo-2-chloro-N-[(1,5-dimethyl-2-piperidyl)(4-fluorophenyl)methyl]-3-(trifluoromethyl)benzamide hydrochloride 1:1]"
7.15,7.05,"CC1CCN(C)C(C(NC(=O)c2cccc(C(F)(F)F)c2Cl)c2ccccc2)C1 (stereo not drawn) [Compound 9, Cis-threo-2-chloro-N-[(1,4-dimethyl-2-piperidyl)(phenyl)methyl]-3-(trifluoromethyl)benzamide hydrochloride 1:1]"
,8.10,"CN1CCCCC1(C)C(NC(=O)c1cccc(C(F)(F)F)c1Cl)c1ccccc1 (stereo not drawn) [Compound 10, Threo-2-chloro-N-[(1,2-dimethyl-2-piperidyl)(phenyl)methyl]-3-(trifluoromethyl)benzamide hydrochloride 1:1]"
